This note sets out measurements from patent US12691112B2, “FGFR tyrosine kinase inhibitors for the treatment of urothelial carcinoma” (Janssen Pharmaceutica NV, priority 2019, dated 2026).

Structures are written as SMILES. Values joined by “and” are separate entries in the source; they are usually repeats but may differ in a detail not shown here. Equal values may be shown once.

The test system of data set [1] is metastatic or surgically unresectable urothelial cancer harboring select FGFR genetic alterations. Briefly: Phase 2 study NCT02365597: tumor response per independent radiographic review committee (BIRC). The format is in vivo, human. As to the method:
Patients were contacted every 12 weeks for survival assessment.
The study was designed to enroll 180 patients with specified FGFR alterations. Of these, ≥88 were required in the selected regimen. […] Responses were assessed by investigators and an independent radiological review committee. Progression-free survival and overall survival were estimated using Kaplan-Meier product limit method. Data from patients who were progression free and alive or with unknown status were censored at last tumor assessment. Efficacy end points were analysed at primary analysis cut-off.

The nature of data set [2]: Excretion after single oral dose of radiolabeled erdafitinib. The format is in vivo.
The conditions of data set [3]: human, in vivo.
Another data set relates to QTc interval. The settings on record: 187 patients with cancer.
The mark [4] stands for this setting: Regimen 3, 8 mg continuous (n=99).
Setting [5] is: Regimen 3, chemotherapy-refractory patients, N = 87.

As for `COc1cc(OC)cc(N(CCNC(C)C)c2ccc3ncc(-c4cnn(C)c4)nc3c2)c1` [erdafitinib, N-(3,5-dimethoxy-phenyl)-N′-(1-methylethyl)-N-[3-(1-methyl-1H-pyrazol-4-yl)quinoxalin-6-yl]ethane-1,2-diamine], in data set [1] (setting [4]), the “Complete response rate per independent radiographic review committee” value is recorded as 3 (3.0) %; the “Objective response rate per independent radiographic review committee” value is 34.3% and 34 (34.3) %; the “Partial response per independent radiographic review committee” value was 31 (31.3) %. In addition, in data set [1] (setting [5]), the “Complete response (CR), BIRC assessment” value stood at 2.3%; the “Median DoR (95% CI), BIRC assessment” value is recorded as 5.4 (4.2, 6.9) months; the “ORR (95% CI), BIRC assessment” value was 32.2% and 32.2 (22.4, 42.0) %; the “Partial response (PR), BIRC assessment” value is 29.9%. In addition, the “ORR (95% CI), BIRC assessment” value in data set [1] (Regimen 3, chemotherapy-refractory, FGFR3 fusion, N = 18) is on record as 11.1 (0, 25.6) %. Moreover, in data set [2], the “dose recovered in feces” value is on record as “approximately 69%”, the “dose recovered in feces as unchanged” value was found to be 19%, the “dose recovered in urine” value turned out to be 19% and the “dose recovered in urine as unchanged” value stood at 13%. Moreover, in data set [3], the “circulating metabolites in plasma” value is listed as “no circulating metabolites”; the “exposure (Cmax and AUC) versus dose” value was “increased proportionally”; the “mean total apparent clearance (CL/F)” value amounted to 0.362 L/h; the “pharmacokinetics in specific populations” value is recorded as “No clinically meaningful trends”. For the same molecule, the “time to steady state” value in data set [3] is 2 weeks. In the data set on QTc interval, the “effect on the QTc interval” value is “no large effect (i.e., >20 ms)”.
